Values of other authors, collected in PMC9569640, “Structural Insights into the Binding Propensity of Human SHIP2 SH2 to Oncogenic CagA Isoforms from Helicobacter pylori” (International Journal of Molecular Sciences, 2022).

Molecular target: SHIP2-SH2
Conditions: 6-mer phosphopeptides (-2 to +3), both with Leu at pY+3; cited from earlier work
Source text: When the natural phosphopeptides interacting with SHIP2-SH2 were ranked according to their affinities to SHIP2-SH2, it was seen that the affinity was related to the residue type at the pY+3 position (Figure 6F). The ligands showing high and moderate affinities have Leu (L) or Ile (I) residues at this site, while ligands with a low affinity have Val (V) at this site. These indicate that SHIP2-SH2 may have a preference for the hydrophobic side chain of the residue at the pY+3 site of its Tyr-phosphorylated ligand.

Substance	KD for SHIP2-SH2 by SPR (comparison in words)
GGpYMTL [FcgR2A ITAM, 6-mer FcgR2A ITAM phosphopeptide (−2 to +3) of a previous SPR study]	comparable KD values
ITpYSLL [6-mer FcgR2B ITIM, 6-mer FcgR2B ITIM phosphopeptide (-2 to +3) of a previous SPR study]	comparable KD values
